Assay results published in patent US20250122183A1 (Pfizer Inc., priority 2023, published 2025).

Columns and labels:
Format in all cases: biochemical
KAT8 Full length enzyme = KAT8 Full length enzyme (Homo sapiens (Human), UniProt Q9H7Z6); experiment: KAT8 assay (SAMDI-MS acetylation of H3 1-21 peptide); details: Morrison equation fit; replicate number in parentheses; read-out: KAT8 Ki (nM) (replicate number)
[1] = target: KAT7+BRPF2+EAF6+ING5 4 protein complex (Homo sapiens (Human), UniProt O95251); experiment: KAT7 BRPF2 assay (SAMDI-MS acetylation of H3 1-21 peptide); details: Morrison equation fit; replicate number in parentheses; read-out: KAT7 BRPF2 Ki (nM) (replicate number)
[2] = target: KAT7+BRPF1+EAF6+ING5 4 protein complex (Homo sapiens (Human), UniProt O95251); experiment: KAT7 BRPF1 assay (SAMDI-MS acetylation of H3 1-21 peptide); details: Morrison equation fit; replicate number in parentheses
KAT5 Full length enzyme = KAT5 Full length enzyme (Homo sapiens (Human), UniProt Q92993); experiment: KAT5 assay (SAMDI-MS acetylation of H4 1-21 peptide); details: Morrison equation fit; replicate number in parentheses; read-out: KAT5 Ki (nM) (replicate number)
Chain of KAT5 Full length enzyme (Q92993 whole entry): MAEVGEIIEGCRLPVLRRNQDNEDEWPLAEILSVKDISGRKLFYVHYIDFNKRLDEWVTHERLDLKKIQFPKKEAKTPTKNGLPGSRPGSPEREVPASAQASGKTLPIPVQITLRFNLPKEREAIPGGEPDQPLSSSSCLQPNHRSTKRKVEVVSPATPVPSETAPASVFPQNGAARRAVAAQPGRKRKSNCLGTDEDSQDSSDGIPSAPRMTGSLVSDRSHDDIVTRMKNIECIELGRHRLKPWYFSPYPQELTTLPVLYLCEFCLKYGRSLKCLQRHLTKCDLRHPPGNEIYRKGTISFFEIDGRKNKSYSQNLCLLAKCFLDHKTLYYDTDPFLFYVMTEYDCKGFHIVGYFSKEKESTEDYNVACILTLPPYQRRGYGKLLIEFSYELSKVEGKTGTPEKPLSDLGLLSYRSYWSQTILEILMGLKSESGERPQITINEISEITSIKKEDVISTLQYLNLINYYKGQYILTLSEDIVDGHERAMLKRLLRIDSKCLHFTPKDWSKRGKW

[3] = target: KAT7+JADE1+EAF6+ING5 4 protein complex (Homo sapiens (Human), UniProt O95251); experiment: KAT7 JADE1 assay (SAMDI-MS acetylation of H3 1-21 peptide); details: Morrison equation fit; replicate number in parentheses; read-out: KAT7 JADE1 Ki (nM) (replicate number)
KAT6A Full length enzyme = KAT6A Full length enzyme (Homo sapiens (Human), UniProt Q92794); experiment: KAT6A assay (SAMDI-MS acetylation of H3 1-21 peptide); details: Morrison equation fit; replicate number in parentheses; read-out: KAT6A Ki (nM) (replicate number)
Chain of KAT6A Full length enzyme (Q92794 other isoform, or with tags, fused parts or gaps): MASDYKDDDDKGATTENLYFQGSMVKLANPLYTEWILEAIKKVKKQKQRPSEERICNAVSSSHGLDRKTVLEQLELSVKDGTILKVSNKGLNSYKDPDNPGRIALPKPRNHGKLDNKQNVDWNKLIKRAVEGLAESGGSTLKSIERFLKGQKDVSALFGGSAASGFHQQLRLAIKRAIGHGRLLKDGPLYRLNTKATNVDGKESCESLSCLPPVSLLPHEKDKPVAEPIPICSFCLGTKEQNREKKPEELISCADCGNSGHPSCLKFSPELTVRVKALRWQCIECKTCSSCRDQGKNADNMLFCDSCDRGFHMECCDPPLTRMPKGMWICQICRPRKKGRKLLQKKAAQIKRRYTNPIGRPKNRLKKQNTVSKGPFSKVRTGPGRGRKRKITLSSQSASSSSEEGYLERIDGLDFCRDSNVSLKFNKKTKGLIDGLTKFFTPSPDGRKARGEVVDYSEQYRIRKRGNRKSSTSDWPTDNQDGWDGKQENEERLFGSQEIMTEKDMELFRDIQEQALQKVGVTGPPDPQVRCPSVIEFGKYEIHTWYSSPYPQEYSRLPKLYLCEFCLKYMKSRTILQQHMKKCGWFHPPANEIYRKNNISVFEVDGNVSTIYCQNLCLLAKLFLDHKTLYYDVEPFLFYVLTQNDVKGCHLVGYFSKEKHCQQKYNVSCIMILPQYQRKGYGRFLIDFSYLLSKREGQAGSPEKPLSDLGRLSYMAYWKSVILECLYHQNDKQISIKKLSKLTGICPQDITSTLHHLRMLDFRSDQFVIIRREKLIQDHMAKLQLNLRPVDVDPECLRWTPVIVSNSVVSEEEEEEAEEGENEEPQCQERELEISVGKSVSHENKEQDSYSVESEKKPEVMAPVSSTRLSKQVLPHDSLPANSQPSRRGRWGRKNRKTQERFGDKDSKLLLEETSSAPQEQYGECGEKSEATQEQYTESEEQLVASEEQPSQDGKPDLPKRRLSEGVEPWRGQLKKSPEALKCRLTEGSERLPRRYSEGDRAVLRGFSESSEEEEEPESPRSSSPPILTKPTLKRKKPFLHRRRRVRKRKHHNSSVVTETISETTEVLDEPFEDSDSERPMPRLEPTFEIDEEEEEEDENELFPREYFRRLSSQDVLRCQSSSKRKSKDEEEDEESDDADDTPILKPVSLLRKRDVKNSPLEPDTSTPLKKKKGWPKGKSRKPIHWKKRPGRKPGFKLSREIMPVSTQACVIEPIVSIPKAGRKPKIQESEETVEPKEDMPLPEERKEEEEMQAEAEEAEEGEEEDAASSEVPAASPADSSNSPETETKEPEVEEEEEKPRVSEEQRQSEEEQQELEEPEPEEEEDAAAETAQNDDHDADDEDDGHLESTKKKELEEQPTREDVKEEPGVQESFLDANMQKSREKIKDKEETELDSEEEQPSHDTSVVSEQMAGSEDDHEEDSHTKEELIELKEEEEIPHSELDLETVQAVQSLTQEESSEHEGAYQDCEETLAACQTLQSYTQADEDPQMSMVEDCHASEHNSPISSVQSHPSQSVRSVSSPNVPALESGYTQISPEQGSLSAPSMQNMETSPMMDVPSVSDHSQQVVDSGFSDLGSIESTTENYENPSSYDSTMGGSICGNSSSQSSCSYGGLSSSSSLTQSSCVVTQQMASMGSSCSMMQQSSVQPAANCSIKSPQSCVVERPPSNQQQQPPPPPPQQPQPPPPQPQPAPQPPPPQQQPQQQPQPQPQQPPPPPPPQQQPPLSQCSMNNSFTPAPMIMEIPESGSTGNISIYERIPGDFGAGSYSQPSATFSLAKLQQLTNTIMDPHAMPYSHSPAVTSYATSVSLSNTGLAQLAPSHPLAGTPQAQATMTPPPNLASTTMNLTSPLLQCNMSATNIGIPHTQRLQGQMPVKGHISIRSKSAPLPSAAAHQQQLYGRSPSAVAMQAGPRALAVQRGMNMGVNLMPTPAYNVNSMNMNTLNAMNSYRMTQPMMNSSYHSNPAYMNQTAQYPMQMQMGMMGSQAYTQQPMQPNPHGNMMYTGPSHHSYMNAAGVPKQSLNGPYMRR

Chain of KAT8 Full length enzyme (Q9H7Z6 whole entry): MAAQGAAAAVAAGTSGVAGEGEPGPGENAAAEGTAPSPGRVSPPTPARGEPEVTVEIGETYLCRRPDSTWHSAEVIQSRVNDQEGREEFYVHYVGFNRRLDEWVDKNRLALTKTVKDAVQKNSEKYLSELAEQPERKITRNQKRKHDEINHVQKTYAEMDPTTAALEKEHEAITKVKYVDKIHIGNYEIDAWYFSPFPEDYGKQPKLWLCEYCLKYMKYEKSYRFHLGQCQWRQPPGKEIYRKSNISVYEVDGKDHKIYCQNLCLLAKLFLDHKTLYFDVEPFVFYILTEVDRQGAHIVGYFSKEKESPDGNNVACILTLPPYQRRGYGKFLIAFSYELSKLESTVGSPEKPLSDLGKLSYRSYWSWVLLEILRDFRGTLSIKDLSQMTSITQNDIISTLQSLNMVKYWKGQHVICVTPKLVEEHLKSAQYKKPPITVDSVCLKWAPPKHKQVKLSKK

| SMILES | Ki (KAT8 Full length enzyme) [nM] | Ki [1] [nM] | Ki [2] [nM] | Ki (KAT5 Full length enzyme) [nM] | Ki [3] [nM] | Ki (KAT6A Full length enzyme) [nM] |
| --- | --- | --- | --- | --- | --- | --- |
| COc1cc2c(NS(=O)(=O)c3ccc(C)cc3OC)noc2cc1Nc1cc[nH]n1 [Example 23, 2-methoxy-N-{5-methoxy-6-[(1H-pyrazol-3-yl)amino]-1,2-benzoxazol-3-yl}-4-methylbenzene-1-sulfonamide] | 1060 | 95.2 | 36.7 | 418 | 212 | 0.9 |
| CCn1ccc(Nc2cc3onc(NS(=O)(=O)c4c(OC)cccc4OC)c3cc2OC)n1 [Example 39, N-{6-[(1-ethyl-1H-pyrazol-3-yl)amino]-5-methoxy-1,2-benzoxazol-3-yl}-2,6-dimethoxybenzene-1-sulfonamide] | > 32600 | 98.2 | 75.3 | 1750 | 175 | 6.1 |
| CCOc1ccccc1S(=O)(=O)Nc1noc2cc(Nc3cc[nH]n3)c(OC)cc12 [Example 28, 2-ethoxy-N-{5-methoxy-6-[(1H-pyrazol-3-yl)amino]-1,2-benzoxazol-3-yl}benzene-1-sulfonamide] | 3110 | 141 | 97.1 | 630 | 290 | 1.2 |
| COc1cccc(OC)c1S(=O)(=O)Nc1noc2cc(Nc3cc[nH]n3)cc(OC)c12 [Example 01, 2,6-Dimethoxy-N-{4-methoxy-6-[(1H-pyrazol-3-yl)amino]-1,2-benzoxazol-3-yl}benzene-1-sulfonamide] | 455 | 37 | 37.7 | 441 | 131 | 0.4 |
| COc1cc2c(NS(=O)(=O)c3cc4c(cc3OC)CCCC4)noc2cc1Nc1cc(C)n[nH]1 [Example 82, 3-methoxy-N-{5-methoxy-6-[(3-methyl-1H-pyrazol-5-yl)amino]-1,2-benzoxazol-3-yl}-5,6,7,8-tetrahydronaphthalene-2-sulfonamide] | 467 | 18.3 | 7.5 | 33.8 | 31.8 | 0.1 |
| COc1cc2c(NS(=O)(=O)c3c(OC)cccc3OC)noc2cc1Nc1ncn(C)n1 [Example 35, 2,6-dimethoxy-N-{5-methoxy-6-[(1-methyl-1H-1,2,4-triazol-3-yl)amino]-1,2-benzoxazol-3-yl}benzene-1-sulfonamide] | 9110 | 156 | 48.3 | 1760 | 527 | 3 |
| COc1cc2c(NS(=O)(=O)c3c(OC)cccc3OC)noc2cc1Nc1cc(C(C)C)n[nH]1 [Example 50, 2,6-dimethoxy-N-(5-methoxy-6-{[3-(propan-2-yl)-1H-pyrazol-5-yl]amino}-1,2-benzoxazol-3-yl)benzene-1-sulfonamide] | 709 | 22.8 | 28.4 | 634 | 113 | 4.5 |
